# Results from article PMC7071059, “Targeting Receptor Tyrosine Kinase VEGFR-2 in Hepatocellular Cancer: Rational Design, Synthesis and Biological Evaluation of 1,2-Disubstituted Benzimidazoles” (Molecules, 2020).
# What was measured:
# HepG2 cell line = assay: In vitro cytotoxic activity, Sulfo-Rhodamine-B (SRB) assay; type: cell-based, human; conditions: Homo sapiens, HepG2, 48 h, SRB assay, 48 h; mean of three independent experiments; read-out: IC50 (μM) on HepG2 Cell Line
# HOP-92 = assay: NCI 60 one dose (10 μM) anticancer assay; type: cell-based; conditions: Homo sapiens, 10 µM one dose, Non-small cell lung Cancer, read-out: Growth Inhibition % HOP-92
# Experimental: (§1) Some of the synthesized compounds were selected by the NCI, Bethesda, MD, USA for evaluation of their anticancer activity. An in vitro one dose (10 μM) anticancer assay was conducted on a full NCI 60-cell line panel derived from 9 different cancer types. Table 2 presents the percent of growth inhibition of some cell lines. […] K-562 and MOLT-4 from leukemia, NCI-H522 from non-small cell lung cancer, HCT-116 from colon cancer, SK-MEL-5 and UACC-62 from melanoma, UO-31 from renal cancer, PC-3 from prostate cancer and HS 578T and T-47D from breast cancer are the most sensitive cell lines to the tested compounds. No growth inhibition was observed from the selected compounds against COLO205, HCC-2998, MALME-3M, SK-MEL-28, DU-145 and BT-549 cell lines. […] Against UO-31 from renal cancer and PC-3 from prostate cancer, it inhibited the growth of 44% and 58% of the cancer cells, respectively.
# NCI-H460 = assay: NCI 60 one dose (10 μM) anticancer assay; type: cell-based; conditions: Homo sapiens, 10 µM one dose, Non-small cell lung Cancer, read-out: Growth Inhibition % NCI-H460
# Experimental: as §1
# NCI-H23 = assay: NCI 60 one dose (10 μM) anticancer assay; type: cell-based; conditions: Homo sapiens, 10 µM one dose, Non-small cell lung Cancer, read-out: Growth Inhibition % NCI-H23
# Experimental: as §1
# NCI-H226 = assay: NCI 60 one dose (10 μM) anticancer assay; type: cell-based; conditions: Homo sapiens, 10 µM one dose, Non-small cell lung Cancer, read-out: Growth Inhibition % NCI-H226
# Experimental: as §1
# EKVX = assay: NCI 60 one dose (10 μM) anticancer assay; type: cell-based; conditions: Homo sapiens, 10 µM one dose, Non-small cell lung Cancer, read-out: Growth Inhibition % EKVX
# Experimental: as §1
# SK-MEL-5 = assay: NCI 60 one dose (10 μM) anticancer assay; type: cell-based; conditions: Homo sapiens, 10 µM one dose, Melanoma, read-out: Growth Inhibition % SK-MEL-5
# Experimental: as §1
# SR = assay: NCI 60 one dose (10 μM) anticancer assay; type: cell-based; conditions: Homo sapiens, 10 µM one dose, Leukemia, read-out: Growth Inhibition % SR
# Experimental: as §1
# UO-31 = assay: NCI 60 one dose (10 μM) anticancer assay; type: cell-based; conditions: Homo sapiens, 10 µM one dose, Renal Cancer, read-out: Growth Inhibition % UO-31
# Experimental: as §1
# NCI/ADR-RES = assay: NCI 60 one dose (10 μM) anticancer assay; type: cell-based; conditions: Homo sapiens, 10 µM one dose, Ovarian Cancer, read-out: Growth Inhibition % NCI/ADR-RES
# Experimental: as §1
# HT29 = assay: NCI 60 one dose (10 μM) anticancer assay; type: cell-based; conditions: Homo sapiens, HT-29; 10 µM one dose; Colon Cancer; read-out: Growth Inhibition % HT29
# Experimental: as §1
# TK-10 = assay: NCI 60 one dose (10 μM) anticancer assay; type: cell-based; conditions: Homo sapiens, 10 µM one dose, Renal Cancer, read-out: Growth Inhibition % TK-10
# Experimental: as §1
# T-47D = assay: NCI 60 one dose (10 μM) anticancer assay; type: cell-based; conditions: Homo sapiens, T47D; 10 µM one dose; Breast Cancer; read-out: Growth Inhibition % T-47D
# Experimental: as §1
# CAK1-1 = assay: NCI 60 one dose (10 μM) anticancer assay; type: cell-based; conditions: 10 µM one dose; Renal Cancer; read-out: Growth Inhibition % CAK1-1
# Experimental: as §1
# BT-549 = assay: NCI 60 one dose (10 μM) anticancer assay; type: cell-based; conditions: Homo sapiens, 10 µM one dose, Breast Cancer, read-out: Growth Inhibition % BT-549
# Experimental: as §1
# OVCAR-4 = assay: NCI 60 one dose (10 μM) anticancer assay; type: cell-based; conditions: Homo sapiens, 10 µM one dose, Ovarian Cancer, read-out: Growth Inhibition % OVCAR-4
# Experimental: as §1
# HSF cell line = assay: In vitro growth inhibitory activity on normal human skin fibroblast, SRB assay; type: cell-based; conditions: for IC50: Homo sapiens, HSF, SRB assay, 48 h, normal cell line, mean of three independent experiments
# Experimental: The anticancer activity of the synthesized compounds was measured in vitro using the Sulfo-Rhodamine-B (SRB) assay according to Skehan et al.. Briefly, HepG2 or HSF cells (obtained from Nawah Scientific) were inoculated in 96-well microtiter plates (10^4 cells/ well) for 24 h before treatment with the tested compounds to allow attachment of cells to the walls of the plates. Test compounds were dissolved in DMSO immediately before use and diluted to the appropriate volume just before addition to the cell culture. […] Three wells were prepared for each individual dose. Monolayer cells were incubated with the compounds for 48 h at 37 °C and in an atmosphere of 5% CO2. After 48 h, cells were fixed, washed and stained for 30 min with 0.4% (w/v) SRB dissolved in 1% acetic acid. Unbound dye was removed by four washes with 1% acetic acid and attached stain was recovered with Tris-EDTA buffer. Color intensity was measured in an ELISA reader. The relation between surviving fraction and drug concentration was plotted to get the survival curve.
# PRMI-8226 = assay: NCI 60 one dose (10 μM) anticancer assay; type: cell-based; conditions: 10 µM one dose; Leukemia; read-out: Growth Inhibition % PRMI-8226
# Experimental: as §1
# VEGFR-2 = VEGFR-2 (Homo sapiens, UniProt P35968); assay: Biochemical kinase assay (Kinase-Glo Plus luminescence)
# Chain of VEGFR-2 (P35968 20-1356): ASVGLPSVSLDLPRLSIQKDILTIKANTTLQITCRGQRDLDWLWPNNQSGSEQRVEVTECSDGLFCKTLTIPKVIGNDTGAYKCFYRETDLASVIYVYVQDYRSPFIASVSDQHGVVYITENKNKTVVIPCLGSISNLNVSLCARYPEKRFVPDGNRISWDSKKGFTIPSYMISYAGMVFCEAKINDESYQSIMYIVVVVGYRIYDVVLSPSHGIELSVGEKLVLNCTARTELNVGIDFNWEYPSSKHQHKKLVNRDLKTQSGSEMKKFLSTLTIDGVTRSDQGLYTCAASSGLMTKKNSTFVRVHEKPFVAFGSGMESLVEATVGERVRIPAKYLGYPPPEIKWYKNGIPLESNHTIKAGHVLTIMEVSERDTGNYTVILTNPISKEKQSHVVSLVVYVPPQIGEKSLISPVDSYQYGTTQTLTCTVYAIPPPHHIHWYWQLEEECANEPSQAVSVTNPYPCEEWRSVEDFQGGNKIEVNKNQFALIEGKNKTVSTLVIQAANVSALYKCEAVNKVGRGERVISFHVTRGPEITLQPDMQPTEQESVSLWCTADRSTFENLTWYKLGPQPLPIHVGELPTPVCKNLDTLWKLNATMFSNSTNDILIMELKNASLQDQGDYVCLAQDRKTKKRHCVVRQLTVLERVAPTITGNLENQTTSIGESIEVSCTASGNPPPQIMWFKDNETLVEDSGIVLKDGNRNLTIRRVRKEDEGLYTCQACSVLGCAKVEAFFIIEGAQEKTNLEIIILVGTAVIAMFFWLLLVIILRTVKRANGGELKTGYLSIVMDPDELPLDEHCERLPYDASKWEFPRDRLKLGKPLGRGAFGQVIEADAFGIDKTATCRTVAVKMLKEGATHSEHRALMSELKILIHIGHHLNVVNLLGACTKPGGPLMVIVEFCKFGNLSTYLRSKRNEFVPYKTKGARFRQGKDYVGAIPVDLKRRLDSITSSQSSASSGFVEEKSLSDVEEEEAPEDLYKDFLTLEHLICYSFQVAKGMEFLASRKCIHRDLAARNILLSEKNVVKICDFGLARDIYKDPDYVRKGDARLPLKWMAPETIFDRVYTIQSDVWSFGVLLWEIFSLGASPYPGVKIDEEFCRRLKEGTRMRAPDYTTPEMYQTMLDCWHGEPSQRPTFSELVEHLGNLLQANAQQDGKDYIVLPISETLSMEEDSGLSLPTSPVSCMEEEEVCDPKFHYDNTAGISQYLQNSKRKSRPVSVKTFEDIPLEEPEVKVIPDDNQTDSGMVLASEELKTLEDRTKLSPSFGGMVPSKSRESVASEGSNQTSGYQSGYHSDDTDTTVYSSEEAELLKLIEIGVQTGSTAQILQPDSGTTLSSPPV
# Experimental: This assay was carried out using the VEGFR-2 kinase enzyme system or FGFR-1 kinase enzyme system and Kinase-Glo Plus luminescence kinase (Promega) kits according to the manufacturers´ protocols. This assay evaluated the activity of kinase by measuring the amount of ATP remaining in solution after a kinase reaction. The luminescent signal from the assay was related to the quantity of ATP available, which was inversely proportional to the amount of kinase activity. […] Subsequently, serial dilutions were carried out, and 5 µL of the dilution was added to a 50 µL reaction. The enzymatic reactions were performed at 30 °C for 45 minutes. The 50 µL reaction mixture contained 40 mM Tris, pH 7.4, 10 mM MgCl2, 0.1 mg/mL BSA, 1 mM DTT, 0.2 mg/ml Poly (Glu, Tyr) substrate, 10 μM ATP and protein. After the enzymatic reaction, 50 µL of Kinase-Glo Plus Luminescence kinase assay solution was added to each reaction, and the plates were incubated for 15 minutes at room temperature. The luminescence signal was measured using a Tecan–spark multimode microplate reader. The difference between luminescence intensities in the absence of Kinase (Lut) and in the presence of Kinase (Luc) was defined as 100% activity (Lut − Luc). Using a luminescence signal (Lu) in the presence of the compound, % activity was calculated as: % activity = {(Lut − Lu)/(Lut − Luc)}×100%, where Lu = the luminescence intensity in the presence of the compound.
# FGFR-1 = FGFR-1 (Homo sapiens, UniProt P11362); assay: as above
# Chain of FGFR-1 (P11362 22-822): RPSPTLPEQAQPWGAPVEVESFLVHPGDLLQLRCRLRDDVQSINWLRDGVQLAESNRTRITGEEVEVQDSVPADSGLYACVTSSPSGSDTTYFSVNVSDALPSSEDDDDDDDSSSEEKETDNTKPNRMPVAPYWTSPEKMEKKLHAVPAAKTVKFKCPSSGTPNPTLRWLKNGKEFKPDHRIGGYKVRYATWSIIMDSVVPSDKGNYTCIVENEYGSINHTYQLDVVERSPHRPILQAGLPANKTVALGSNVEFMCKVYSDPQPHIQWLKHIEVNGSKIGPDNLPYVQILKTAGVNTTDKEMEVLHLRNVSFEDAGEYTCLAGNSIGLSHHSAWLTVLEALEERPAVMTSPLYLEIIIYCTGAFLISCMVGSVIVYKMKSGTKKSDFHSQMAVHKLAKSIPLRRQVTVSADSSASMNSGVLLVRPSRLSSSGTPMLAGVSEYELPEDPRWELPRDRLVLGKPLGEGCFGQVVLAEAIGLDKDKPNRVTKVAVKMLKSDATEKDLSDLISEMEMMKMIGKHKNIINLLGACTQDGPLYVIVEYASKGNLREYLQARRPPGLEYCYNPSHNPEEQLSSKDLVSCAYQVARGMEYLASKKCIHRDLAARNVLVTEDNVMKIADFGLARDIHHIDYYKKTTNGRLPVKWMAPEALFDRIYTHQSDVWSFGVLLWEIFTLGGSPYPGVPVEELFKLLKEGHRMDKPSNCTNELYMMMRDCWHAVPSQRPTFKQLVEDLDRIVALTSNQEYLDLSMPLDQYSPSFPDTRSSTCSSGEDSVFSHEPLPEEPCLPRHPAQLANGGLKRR
# Experimental: (§2) This assay was carried out using the VEGFR-2 kinase enzyme system or FGFR-1 kinase enzyme system and Kinase-Glo Plus luminescence kinase (Promega) kits according to the manufacturers´ protocols. This assay evaluated the activity of kinase by measuring the amount of ATP remaining in solution after a kinase reaction. The luminescent signal from the assay was related to the quantity of ATP available, which was inversely proportional to the amount of kinase activity. […] Subsequently, serial dilutions were carried out, and 5 µL of the dilution was added to a 50 µL reaction. The enzymatic reactions were performed at 30 °C for 45 minutes. […] After the enzymatic reaction, 50 µL of Kinase-Glo Plus Luminescence kinase assay solution was added to each reaction, and the plates were incubated for 15 minutes at room temperature. The luminescence signal was measured using a Tecan–spark multimode microplate reader. The difference between luminescence intensities in the absence of Kinase (Lut) and in the presence of Kinase (Luc) was defined as 100% activity (Lut − Luc). Using a luminescence signal (Lu) in the presence of the compound, % activity was calculated as: % activity = {(Lut − Lu)/(Lut − Luc)}×100%, where Lu = the luminescence intensity in the presence of the compound.
# PDGFR-β = PDGFR-β (Homo sapiens, UniProt P09619); assay: Biochemical kinase assay
# Chain of PDGFR-β (P09619 33-1106): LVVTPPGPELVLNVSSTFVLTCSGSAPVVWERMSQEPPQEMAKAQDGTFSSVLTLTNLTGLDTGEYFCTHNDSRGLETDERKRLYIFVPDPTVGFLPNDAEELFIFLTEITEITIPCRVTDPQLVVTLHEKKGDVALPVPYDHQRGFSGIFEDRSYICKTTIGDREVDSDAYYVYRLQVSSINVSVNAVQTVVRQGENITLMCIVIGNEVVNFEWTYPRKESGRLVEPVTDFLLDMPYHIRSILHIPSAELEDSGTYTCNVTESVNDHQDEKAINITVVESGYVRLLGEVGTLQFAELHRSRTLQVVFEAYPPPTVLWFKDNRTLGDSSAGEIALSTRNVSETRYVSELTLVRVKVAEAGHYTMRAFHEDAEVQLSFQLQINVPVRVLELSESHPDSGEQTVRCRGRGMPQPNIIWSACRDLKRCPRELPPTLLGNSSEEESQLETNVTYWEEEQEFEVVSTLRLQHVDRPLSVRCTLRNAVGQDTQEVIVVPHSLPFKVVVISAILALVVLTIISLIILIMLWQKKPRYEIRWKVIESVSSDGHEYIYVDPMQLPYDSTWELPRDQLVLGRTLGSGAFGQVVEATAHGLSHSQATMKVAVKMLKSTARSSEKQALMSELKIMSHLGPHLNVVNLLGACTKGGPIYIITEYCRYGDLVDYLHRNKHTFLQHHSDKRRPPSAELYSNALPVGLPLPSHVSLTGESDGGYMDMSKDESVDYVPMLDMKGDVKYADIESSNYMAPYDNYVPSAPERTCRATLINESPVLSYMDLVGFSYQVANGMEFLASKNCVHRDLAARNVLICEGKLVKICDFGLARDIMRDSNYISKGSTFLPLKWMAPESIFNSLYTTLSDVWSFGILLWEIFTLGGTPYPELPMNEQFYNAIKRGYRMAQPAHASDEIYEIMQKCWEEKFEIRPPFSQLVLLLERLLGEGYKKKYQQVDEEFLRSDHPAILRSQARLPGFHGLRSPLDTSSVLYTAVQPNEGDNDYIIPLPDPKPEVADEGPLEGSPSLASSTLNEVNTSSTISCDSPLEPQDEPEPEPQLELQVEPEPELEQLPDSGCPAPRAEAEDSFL
# Experimental: as §2
Compound,IC50 (HepG2 cell line) [µM],inhibition at 10 µM (HOP-92) [%],inhibition at 10 µM (NCI-H460) [%],inhibition at 10 µM (NCI-H23) [%],inhibition at 10 µM (NCI-H226) [%],inhibition at 10 µM (EKVX) [%],inhibition at 10 µM (SK-MEL-5) [%],inhibition at 10 µM (SR) [%],inhibition at 10 µM (UO-31) [%],inhibition at 10 µM (NCI/ADR-RES) [%],inhibition at 10 µM (HT29) [%],inhibition at 10 µM (TK-10) [%],inhibition at 10 µM (T-47D) [%],inhibition at 10 µM (CAK1-1) [%],inhibition at 10 µM (BT-549) [%],melting point [°C],inhibition at 10 µM (OVCAR-4) [%],also measured
"CC(C)c1nc2ccccc2n1CC(=O)N/N=C/c1ccc(OCc2ccccc2)cc1 [Compound 17c, (E)-N′-(4-(Benzyloxy)benzylidene)-2-(2-isopropyl-1H-benzo[d]imidazol-1-yl)acetohydrazide]",20.2,< 10,< 10,< 10,< 10,< 10,< 10,< 10,28,< 10,< 10,< 10,24,15,< 10,209 to 211,,
"Cc1ccc(-c2nc3ccccc3n2CC(=O)N/N=C/c2ccc(OCc3ccccc3)cc2)o1 [Compound 17d, (E)-N′-(4-(Benzyloxy)benzylidene)-2-(2-(5-methylfuran-2-yl)-1H-benzo[d]imidazol-1-yl)acetohydrazide]",15.6,,< 10,< 10,< 10,21,15,16,30,< 10,< 10,< 10,31,21,< 10,201 to 203,< 10,
"Cc1ccc(-c2nc3ccccc3n2CC(=O)N/N=C/c2cccc(OCc3ccccc3)c2)o1 [Compound 17b, (E)-N′-(3-(Benzyloxy)benzylidene)-2-(2-(5-methylfuran-2-yl)-1H-benzo[d]imidazol-1-yl)acetohydrazide]",10,32,27,14,25,43,33,25,57,29,29,10,49,33,< 10,180 to 182,21,IC50 (HSF cell line): 4.8 µM; inhibition at 10 µM (PRMI-8226): 50%; IC50 (VEGFR-2): 0.14 ± 0.004 µM
"C/C(=N\NC(=O)Cn1c(C(C)C)nc2ccccc21)c1ccccc1 [Compound 14a, (E)-2-(2-Isopropyl-1H-benzo[d]imidazol-1-yl)-N′-(1-phenylethylidene)acetohydrazide]",25.9,18,< 10,< 10,22,< 10,< 10,,< 10,< 10,< 10,< 10,< 10,12,< 10,176 to 178,< 10,inhibition at 10 µM (PRMI-8226): < 10%
"CC(C)c1nc2ccccc2n1CC(=O)N/N=C/c1cccc(OCc2ccccc2)c1 [Compound 17a, (E)-N′-(3-(Benzyloxy)benzylidene)-2-(2-isopropyl-1H-benzo[d]imidazol-1-yl)acetohydrazide]",1.98,,< 10,39,29,21,50,64,44,< 10,< 10,< 10,32,< 10,28,,< 10,IC50 (FGFR-1): 0.11 ± 0.004 µM; IC50 (HSF cell line): 19.9 µM; selectivity to the HepG2 cell line over the normal HSF cell line (HSF cell line; from IC50 HSF vs IC50 HepG2): about ten-fold higher selectivity; IC50 (PDGFR-β): 0.05 ± 0.002 µM; IC50 (VEGFR-2): 0.11 ± 0.003 µM
"COc1cc(/C=N/NC(=O)Cn2c(-c3ccc(C)o3)nc3ccccc32)ccc1OCc1ccccc1 [Compound 17f, (E)-N′-(4-(Benzyloxy)-3-methoxybenzylidene)-2-(2-(5-methylfuran-2-yl)-1H-benzo[d]imidazol-1-yl)acetohydrazide]",42.5,,< 10,< 10,16,25,23,25,38,< 10,< 10,< 10,31,17,< 10,139 to 141,< 10,
"COc1cc(/C=N/NC(=O)Cn2c(C(C)C)nc3ccccc32)ccc1OCc1ccccc1 [Compound 17e, (E)-N′-(4-(Benzyloxy)-3-methoxybenzylidene)-2-(2-isopropyl-1H-benzo[d]imidazol-1-yl)acetohydrazide]",24.1,< 10,< 10,< 10,< 10,< 10,17,< 10,20,< 10,< 10,< 10,27,< 10,< 10,180 to 182,< 10,
